# Values of other authors as cited in patent publication US20200397744A1, “COMPOSITIONS COMPRISING CO-CRYSTALS OF STILBENOIDS AND CANNABINOIDS” (priority 2018, published 2020).
# Legend:
# [1] = in vivo
# cancer cell lines = cancer cell lines in vitro
SMILES,decrease of plasma glucose levels (hyperglycemic rats) [%],bioavailability [1],cytotoxic activity (cancer cell lines)
CN(C)C(=N)N=C(N)N [metformin],48,,
"COc1cc(/C=C/c2ccc(O)cc2)cc(OC)c1 [pterostilbene, trans-3,5-dimethoxy-4′-hydroxystilbene]",,poor bioavailability,cytotoxic activity
